Measured values: patent US20030187048A1, “Method for inhibiting skin lesion formation using histamine as the active ingredient” (priority 1991, published 2003)
Where “and” joins values, the source holds several entries; their conditions need not be identical. Equal values may be shown once. Read-outs that look alike come from different tables or passages of the source.

How the values were obtained:
[1] = tested on: thermal burn injuries; settings: for Height in mm of Blister / Height in mm of Swelling of Soft Tissue Surrounding Burn Site / Subjective Evaluation of Tenderness on Palpations (rated 0 to 5) / Zone of Erythema Surrounding Burn Site (mm): per burn site
[2] = tested on: Allergic Conjunctivitis
Description: The composition of the present invention includes initial preparation of a gel base by adding 0.8% CARBOPOL 940, which is a vinyl polymer, to distilled water. This mixture was allowed to stand for several hours until the polymer was wetted and a gel was formed. This mixture then was blended by means of a ordinary high speed mixer, such as a Lightning Labmaster II until a homogenous mixture is formed. At this point, a neutralizing and emulsifying agent such as an amino alcohol was added, forming an emulsion. […] This composition then was applied topically to various types of lesions, as subsequently described. […] Propylparaben or methylparaben may be used as a preservative. For “unidose” dispensers containing only two to three drops, no preservatives are used, as it is known that preservatives in ophthalmic solutions frequently cause undesirable side effects. The term semi-synthetic water soluble polymer as used herein includes hydroxy methylcellulose or carboxy methylcellulose. Carbopol is widely available in different viscosities.
Treatment consisted of topical ophthalmic application of both ophthalmic solution concentrations to their randomly assigned patients 2 times a day for 5 days. […] Each patient was clinically evaluated at 48 hours and 120 hours following the initiation of treatment for 2 parameters of tissue damage associated with Allergic Conjunctivitis. In addition, each patient was asked to evaluate subjectively 3 symptoms associated with Allergic Conjunctivitis 48 hours and 120 hours after treatment initiation. The percent reduction from the initial presentation of each of the parameters of tissue damage and the initial presentation for each additional symptom evaluated was calculated from 48 and 120 hour post treatment initiation data.
Patients were randomly assigned to one of two active levels being evaluated.
Clinical evaluation was performed at 48 hours and 120 hours post treatment initiation. Each patient was asked to subjectively evaluate 3 additional symptoms associated with Allergic Conjunctivitis by rating each symptom on a scale of 0 to 5 with 0 representing no evidence of symptom and 5 representing the greatest evidence of the symptom ever by the patient. clinical evaluation of tissue damage parameters was also done using the same scale of 0 to 5.
Patient compliance with the treatment regimen and the use of other medications was also evaluated.

[3] = tested on: herpes genitalis lesions; settings: for Burning score / Local pain score: scale 0 to 5; for Reduction in Complete Healing Time: vs usual episode
Description: Treatment consisted of topical application three times a day for a period of five days. […] The percent reduction in complete healing time as compared to a usual episode was evaluated grouping the two patients who received active gel concentrations together and comparing to the two patients receiving placebo gel.
Each patient was contacted daily for 5 days for his or her estimate of the symptomatic relief of 6 common symptoms associated with genital herpes as well as the patient's interpretation of total healing of the episode. In an attempt to quantify responses, patients were asked to rate each symptom on a scale of 0 to 5 with 0 representing no evidence of the symptom and 5 representing the worst or most prominent evidence of the symptom ever for the patient. Subject compliance with the study regimen and the use of other medications was also assessed.

[4] = 0.0045% gel, from greatest value of that burn site
[5] = 0.009% gel, from greatest value of that burn site
[6] = 0.0067% ophth soln, 48 hrs, per patient
[7] = 0.0067% ophth soln, 120 hrs, per patient
[8] = 0.0067% ophth soln, scale 0 to 5, per patient

NCCc1c[nH]cn1 [IEP, 1H-imidazole-4-ethanamine,phosphate]
Height in mm of Blister ([1]; 0.0045% gel, 3.5 hours): 3 mm and 2 mm | Height in mm of Swelling of Soft Tissue Surrounding Burn Site ([1]; 0.0045% gel, 3.5 hours): 1 mm | Subjective Evaluation of Tenderness on Palpations (rated 0 to 5) ([1]; 0.0045% gel, 3.5 hours): 3 and 5 | Zone of Erythema Surrounding Burn Site (mm) ([1]; 0.0045% gel, 3.5 hours): 8 mm and 4 mm | Height in mm of Blister ([1]; 0.0045% gel, 8 hours): 2.5 mm and 1.5 mm | Height in mm of Swelling of Soft Tissue Surrounding Burn Site ([1]; 0.0045% gel, 8 hours): 1 mm | Subjective Evaluation of Tenderness on Palpations (rated 0 to 5) ([1]; 0.0045% gel, 8 hours): 2 and 4 | Zone of Erythema Surrounding Burn Site (mm) ([1]; 0.0045% gel, 8 hours): 6 mm and 3 mm | Height in mm of Blister ([1]; 0.0045% gel, 22 hours): 1.5 mm and 1 mm | Subjective Evaluation of Tenderness on Palpations (rated 0 to 5) ([1]; 0.0045% gel, 22 hours): 2 and 4 | % Reduction in Tissue Damage at 22 Hours: Height of Blister [1, 4]: 50.0% | % Reduction in Tissue Damage at 22 Hours: Swelling of Surrounding Tissue [1, 4]: 100.0% and 50.0% | % Reduction in Tissue Damage at 22 Hours: Zone of Erythema (mm) [1, 4]: 66.7% and 81.3% | Height in mm of Blister ([1]; 0.009% gel, 3.5 hours): 2 mm | Height in mm of Swelling of Soft Tissue Surrounding Burn Site ([1]; 0.009% gel, 3.5 hours): 1 mm | Subjective Evaluation of Tenderness on Palpations (rated 0 to 5) ([1]; 0.009% gel, 3.5 hours): 2 and 3 | Zone of Erythema Surrounding Burn Site (mm) ([1]; 0.009% gel, 3.5 hours): 6 mm and 4 mm | Height in mm of Blister ([1]; 0.009% gel, 8 hours): 1 mm | Height in mm of Swelling of Soft Tissue Surrounding Burn Site ([1]; 0.009% gel, 8 hours): 0 mm | Subjective Evaluation of Tenderness on Palpations (rated 0 to 5) ([1]; 0.009% gel, 8 hours): 2 | Zone of Erythema Surrounding Burn Site (mm) ([1]; 0.009% gel, 8 hours): 4 mm and 3 mm | Height in mm of Swelling of Soft Tissue Surrounding Burn Site ([1]; 0.009% gel, 22 hours): 0 mm | Subjective Evaluation of Tenderness on Palpations (rated 0 to 5) ([1]; 0.009% gel, 22 hours): 1 | Zone of Erythema Surrounding Burn Site (mm) ([1]; 0.009% gel, 22 hours): 2 mm | % Reduction in Tissue Damage at 22 Hours: Height of Blister [1, 5]: 75.0% and 100.0% | % Reduction in Tissue Damage at 22 Hours: Swelling of Surrounding Tissue [1, 5]: 100.0% | % Reduction in Tissue Damage at 22 Hours: Tenderness on Palpation [1, 5]: 80.0% | % Reduction in Tissue Damage at 22 Hours: Zone of Erythema (mm) [1, 5]: 77.8% and 75.0% | Difference in tissue damage parameters vs placebo ([1]; 0.009% vs placebo, p<.O1 for 3 of the 4 parameters, fourth p<0.05): highly significant | Untoward events or significant complications ([1]; in vivo): no untoward events or significant complications | Edema, Percent Reduction from Pre-Treatment Value [2, 6]: 66.67% and 50.0% and 100.0% | Itching, Percent Reduction from Pre-Treatment Value [2, 6]: 100.0% (2×) and 50.0% | Level of Discomfort, Percent Reduction from Pre-Treatment Value [2, 6]: 66.67% and 75.0% and 100.0% | Redness, Percent Reduction from Pre-Treatment Value [2, 6]: 66.67% (2×) and 75.0% | Tearing, Percent Reduction from Pre-Treatment Value [2, 6]: 100.0% and 50.0% | Edema, Percent Reduction from Pre-Treatment Value [2, 7]: 100.0% | Itching, Percent Reduction from Pre-Treatment Value [2, 7]: 100.0% | Level of Discomfort, Percent Reduction from Pre-Treatment Value [2, 7]: 66.7% and 100.0% (2×) | Redness, Percent Reduction from Pre-Treatment Value [2, 7]: 100.0% and 75.0% and 66.67% | Tearing, Percent Reduction from Pre-Treatment Value [2, 7]: 100.0% (2×) and 75.0% | Conjunctival Injection or Redness, Value at 48 Hours [2, 8]: 1 (2×) and 3 | Edema, Value at 120 Hours [2, 8]: 0 | Itching, Value at 120 Hours [2, 8]: 0 | Difference in percent reduction of tissue damage parameters and symptoms vs placebo ophthalmic solution ([2]; 0.0067% ophthalmic solution): either significant (p<0.05) or highly significant (p<.O1) | Untoward effects ([2]; in vivo): no untoward effects | Burning score ([3]; 0.0275% IEP gel, day 1): 3 | Local pain score ([3]; 0.0275% IEP gel, day 1 of treatment): 3 | Burning score ([3]; 0.0275% IEP gel, day 2): 0 | Local pain score ([3]; 0.0275% IEP gel, day 2): 0 | Burning score ([3]; 0.0275% IEP gel, day 3): 0 | Local pain score ([3]; 0.0275% IEP gel, day 3): 0 | Burning score ([3]; 0.0275% IEP gel, day 4): 0 | Local pain score ([3]; 0.0275% IEP gel, day 4): 0 | Burning score ([3]; 0.0275% IEP gel, day 5): 0 | Local pain score ([3]; 0.0275% IEP gel, day 5): 0 | Healing Time ([3]; 0.0275% IEP gel, patient 603, usual healing time 7 days): 1 days | Reduction in Complete Healing Time ([3]; 0.0275% IEP gel): 85% | Burning score ([3]; […] IEP gel, day 1): 3 | Local pain score ([3]; […] IEP gel, day 1): 4 | Burning score ([3]; […] IEP gel, day 2): 1 | Local pain score ([3]; […] IEP gel, day 2): 2 | Burning score ([3]; […] IEP gel, day 3): 0 | Local pain score ([3]; […] IEP gel, day 3): 2 | Burning score ([3]; […] IEP gel, day 4): 0 | Local pain score ([3]; […] IEP gel, day 4): 0 | Burning score ([3]; […] IEP gel, day 5): 0 | Local pain score ([3]; […] IEP gel, day 5): 0 | Healing Time ([3]; […] IEP gel, patient 604, usual healing time 7 days): 3.5 days | Reduction in Complete Healing Time ([3]; […] IEP gel): 50% | Difference in percent reduction in complete healing time vs placebo ([3]; combined […] and 0.0275% groups, p<0.05): significant | Untoward reactions ([3]; topical gel […], 0.0275%, three times a day for five days): no untoward reactions
